Reference: ChEMBL document CHEMBL4813909, “Heterocyclic Diamidine DNA Ligands as HOXA9 Transcription Factor Inhibitors: Design, Molecular Evaluation, and Cellular Consequences in a HOXA9-Dependant Leukemia Cell Model” (J Med Chem, 2019)
Activity calls are given as the source filed them. No cut-off for these calls is given here.

Experiments:
[1] = Induction of cell cycle arrest in mouse MigA9 cells harboring mouse Hoxa9 gene assessed as accumulation at sub-G1 phase at 20 uM incubated for 48 hrs by propidium iodide staining based flow cytometry (reference value: 0.76 +/- 0.1%); type: functional
[2] = tested on: HOXA9 DNA binding site [UNDEFINED MUTATION]; experiment: Binding affinity to DNA Hoxa9-binding site-5'-ATTTA mutant (strand a-CTGCGATGAGTCACGACCGC/strand b-GCGGTCGTGACTCATCGCAG) (unknown origin) by UV/visible spectrophotometric method; type: nucleic-acid assay
[3] = Induction of spectral signal at wavelength at 1 to 10 uM by circular dichroism method; type: physicochemical; conditions: dose 1-10 µM
[4] = tested on: HOXA9 DNA binding site [UNDEFINED MUTATION]; experiment: Binding affinity to DNA Hoxa9-binding site-5'-ATTTA/5'ATGA double mutant (strand a-CTGCGTAGCGTCACGACCGC/strand b-GCGGTCGTGACGCTACGCAG) (unknown origin) by UV/visible spectrophotometric method; type: nucleic-acid assay
HOXA9 DNA binding site [5] = experiment: Inhibition of HOXA9 (unknown origin) expressed in reticulocyte lysate system binding to 32P-radiolabeled DNA Hoxa9-binding site (strand a-CTGCGATGATTTACGACCGC /strand b-GCGGTCGTAAATCATCGCAG) (unknown origin) assessed as HOXA9/DNA inhibition at 2.5 to 20 uM incubated for 20 mins by electrophoretic mobility shift assay relative to control; type: subcellular; conditions: dose 2.5-20 µM
[6] = Cytotoxicity against mouse MigA9 cells harboring mouse Hoxa9 gene incubated for 72 hrs by MTS assay; type: functional, cell-based; conditions: MigA9, 72 h
[7] = Drug localization in nucleus of human HT-29 cells at 5 uM incubated for 16 hrs by DiOC6/propidium iodide staining based by fluorescence microscopy; type: ADME, subcellular; conditions: ht-29, 16 h
K562 = experiment: Anticlonogenic activity in human K562 cells assessed as K562 number at 2.5 uM incubated for 10 days by Methocult-colony forming cell assay relative to control; type: functional; conditions: time 10 day
[8] = Stability in mouse MigA9 cells assessed as visibility of intrinsic fluorescence measured after 10 days by fluorescence microscopy; type: ADME, cell-based; conditions: miga9, 240 h, time 10 day
[9] = Induction of cell death in mouse MigA9 cells harboring mouse Hoxa9 gene assessed as propidium iodide-positive cells at 15 uM incubated for 24 hrs by propidium iodide staining based flow cytometry (reference value: 9.06 +/- 0.53%); type: functional; conditions: dose 15 µM; time 24 hrs
[10] = Induction of cell death in mouse MigA9 cells harboring mouse Hoxa9 gene assessed as propidium iodide-positive cells at 20 uM incubated for 24 hrs by propidium iodide staining based flow cytometry (reference value: 9.06 +/- 0.53%); type: functional; conditions: dose 20 µM; time 24 hrs
MigA9 [11] = experiment: Upregulation of CEACAM1 gene in mouse MigA9 cells by ingenuity pathway analysis; type: functional, cell-based
MigA9 [12] = experiment: Upregulation of timp2 gene in mouse MigA9 cells by ingenuity pathway analysis; type: functional, cell-based
MigA9 [13] = experiment: Downregulation of onecut1 gene in mouse MigA9 cells by ingenuity pathway analysis; type: functional, cell-based
MigA9 [14] = experiment: Upregulation of tac4 gene in mouse MigA9 cells by ingenuity pathway analysis; type: functional, cell-based
HOXA9 DNA binding site [15] = conditions: dose 0.5 µM
MigA9 [16] = experiment: Downregulation of KLF2 gene in mouse MigA9 cells by ingenuity pathway analysis; type: functional, cell-based
[17] = target: Homeobox protein Hox-A9 (Mus musculus) (UniProt P09631); experiment: Inhibition of HOXA9 in mouse MigA9 cells assessed as downregulation of wang-immortalised-by-hoxa9-and meis1-up genes by gene set enrichment analysis; type: cell-based
MigA9 [18] = experiment: Downregulation of pim1 gene in mouse MigA9 cells by ingenuity pathway analysis; type: functional, cell-based
MigA9 [19] = experiment: Downregulation of CD74 gene in mouse MigA9 cells by ingenuity pathway analysis; type: functional, cell-based
MigA9 [20] = experiment: Downregulation of CTSG gene in mouse MigA9 cells by ingenuity pathway analysis; type: functional, cell-based
MigA9 [21] = experiment: Downregulation of ARHGEF1 gene in mouse MigA9 cells by ingenuity pathway analysis; type: functional, cell-based
[22] = target: Homeobox protein Hox-A9 (Mus musculus) (UniProt P09631); experiment: Inhibition of HOXA9 in mouse MigA9 cells assessed as induction of takeda- targets-of-nup98- hoxa9-fusion-8d-dn genes by gene set enrichment analysis; type: cell-based
MigA9 [23] = experiment: Upregulation of rgs10 gene in mouse MigA9 cells by ingenuity pathway analysis; type: functional, cell-based
MigA9 [24] = experiment: Induction of IGLL1/IGLL5 gene in mouse MigA9 cells by ingenuity pathway analysis; type: functional, cell-based
[25] = target: Homeobox protein Hox-A9 (Mus musculus) (UniProt P09631); experiment: Inhibition of HOXA9 in mouse MigA9 cells assessed as induction of gabriely-mir21-targets gene by gene set enrichment analysis; type: cell-based
[26] = tested on: HOXA9 DNA binding site [UNDEFINED MUTATION]
MigA9 [27] = experiment: Induction of AKAP13 gene in mouse MigA9 cells by ingenuity pathway analysis; type: functional, cell-based
MigA9 [28] = experiment: Induction of PIM1 gene in mouse MigA9 cells by ingenuity pathway analysis; type: functional, cell-based
MigA9 [29] = experiment: Upregulation of E2F1 gene in mouse MigA9 cells by ingenuity pathway analysis; type: functional, cell-based
[30] = target: Homeobox protein Hox-A9 (Mus musculus) (UniProt P09631); experiment: Inhibition of HOXA9 in mouse MigA9 cells assessed as induction of gal-leukemic stem cell-dn genes by gene set enrichment analysis; type: cell-based
MigA9 [31] = experiment: Downregulation of FGF7 gene in mouse MigA9 cells by ingenuity pathway analysis; type: functional, cell-based
[32] = tested on: HOXA9 DNA binding site [UNDEFINED MUTATION]; remark: listed apart in the source
MigA9 [33] = experiment: Induction of RGS10 gene in mouse MigA9 cells by ingenuity pathway analysis; type: functional, cell-based
MigA9 [34] = experiment: Induction of CD47 gene in mouse MigA9 cells by ingenuity pathway analysis; type: functional, cell-based
MigA9 [35] = experiment: Upregulation of DICER1 gene in mouse MigA9 cells by ingenuity pathway analysis; type: functional, cell-based
MigA9 [36] = experiment: Upregulation of ID1 gene in mouse MigA9 cells by ingenuity pathway analysis; type: functional, cell-based
MigA9 [37] = experiment: Upregulation of DNMT3A gene in mouse MigA9 cells by ingenuity pathway analysis; type: functional, cell-based
MigA9 [38] = experiment: Upregulation of Ncoa6 gene in mouse MigA9 cells by ingenuity pathway analysis; type: functional, cell-based
MigA9 [39] = experiment: Induction of TAC4 gene in mouse MigA9 cells by ingenuity pathway analysis; type: functional, cell-based
MigA9 [40] = experiment: Induction of TP53 gene in mouse MigA9 cells by ingenuity pathway analysis; type: functional, cell-based
MigA9 [41] = experiment: Upregulation of KLF3 gene in mouse MigA9 cells by ingenuity pathway analysis; type: functional, cell-based
MigA9 [42] = experiment: Induction of ITGAM gene in mouse MigA9 cells by ingenuity pathway analysis; type: functional, cell-based
[43] = target: Homeobox protein Hox-A9 (Mus musculus) (UniProt P09631); experiment: Inhibition of HOXA9 in mouse MigA9 cells assessed as downregulation of martens-tretinoin-response-dn genes by gene set enrichment analysis; type: cell-based
HOXA9 DNA binding site [44] = conditions: dose 1.0 µM
[45] = target: Homeobox protein Hox-A9 (Mus musculus) (UniProt P09631); experiment: Inhibition of HOXA9 in mouse MigA9 cells assessed as induction of nuytten-ezh2-targets-up genes by gene set enrichment analysis; type: cell-based

Chain of Homeobox protein Hox-A9 (Mus musculus) (P09631 whole entry, the tested form may be a part): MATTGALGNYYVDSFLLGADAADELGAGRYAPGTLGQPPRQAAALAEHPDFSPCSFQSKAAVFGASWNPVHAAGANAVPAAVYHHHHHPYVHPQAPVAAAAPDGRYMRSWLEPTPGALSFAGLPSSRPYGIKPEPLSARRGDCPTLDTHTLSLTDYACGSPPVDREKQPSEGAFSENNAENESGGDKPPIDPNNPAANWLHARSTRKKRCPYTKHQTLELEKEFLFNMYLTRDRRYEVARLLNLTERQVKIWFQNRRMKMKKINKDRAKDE

## N=C(N)c1ccc(-c2ccc(-c3nc4cc(C(=N)N)ccc4o3)o2)cc1
[1]
  Activity: 0.92%
[2]
  Activity: inactive
[3]
  Activity: Not Active
[4]
  Activity: inactive
HOXA9 DNA binding site [5]
  inhibition: inactive
[6]
  IC50: > 50 µM
[7]
  Drug transport: Active
K562
  Activity: 100%
[8]
  Stabilty: Stable
[9]
  Activity: 8.89%
[10]
  Activity: 8.38%

## N=C(N)c1ccc(-c2ccc(-c3nc4ccc(C(=N)N)cc4[nH]3)s2)cc1
MigA9 [11]
  Activity: Active
[1]
  Activity: 12%
MigA9 [12]
  Activity: Active
MigA9 [13]
  Activity: Active
MigA9 [14]
  Activity: Active
HOXA9 DNA binding site [15]
  ΔTm: 7 °C
MigA9 [16]
  Activity: Active
[17]
  inhibition: Active
MigA9 [18]
  Activity: Active
MigA9 [19]
  Activity: Active
MigA9 [20]
  Activity: Active
MigA9 [21]
  Activity: Active
[22]
  inhibition: Active
MigA9 [23]
  Activity: Active
MigA9 [24]
  Activity: Active
[25]
  inhibition: Active
[26]
  ΔTm: 4 °C
MigA9 [27]
  Activity: Active
MigA9 [28]
  Activity: Active
MigA9 [29]
  Activity: Active
[7]
  Drug transport: Active
[30]
  inhibition: Active
MigA9 [31]
  Activity: Active
[32]
  ΔTm: 4 °C
MigA9 [33]
  Activity: Active
MigA9 [34]
  Activity: Active
K562
  Activity: 100%
MigA9 [35]
  Activity: Active
MigA9 [36]
  Activity: Active
MigA9 [37]
  Activity: Active
[8]
  Stabilty: Stable
MigA9 [38]
  Activity: Active
MigA9 [39]
  Activity: Active
MigA9 [40]
  Activity: Active
MigA9 [41]
  Activity: Active
MigA9 [42]
  Activity: Active
[43]
  inhibition: Active
[9]
  Activity: 13.5%
HOXA9 DNA binding site [44]
  ΔTm: > 10 °C
[10]
  Activity: 21.07%
[45]
  inhibition: Active
